Results from publication PMC5399312 (Journal of Experimental & Clinical Cancer Research : CR, 2017).

Key:
SW480 cells [1] = assay: Determination of lactate generation; type: cell-based, human; conditions: 48 h; versus untreated or Met treated control
Procedure: After 48 h drug treatment, media was collected and assayed following the manufacturer’s instructions of Lactic Acid Production Detection kit (KeyGen, Nanjing, China) to measure the generation of lactic acid. The assay was determined using a plate reader (Synergy HT, BioTek, USA) at 530 nm. Met was used as a positive control.

HK4 = target: T1, HK4 (Homo sapiens, UniProt P35557); assay: In vitro enzyme inhibition assay (G6P-DH coupled, NADH 340 nm); type: biochemical; conditions: recombinant HK4
T1 construct: made in house; host or cells: E. coli BL21 (DE3)
T1 sequence (P35557 1-465): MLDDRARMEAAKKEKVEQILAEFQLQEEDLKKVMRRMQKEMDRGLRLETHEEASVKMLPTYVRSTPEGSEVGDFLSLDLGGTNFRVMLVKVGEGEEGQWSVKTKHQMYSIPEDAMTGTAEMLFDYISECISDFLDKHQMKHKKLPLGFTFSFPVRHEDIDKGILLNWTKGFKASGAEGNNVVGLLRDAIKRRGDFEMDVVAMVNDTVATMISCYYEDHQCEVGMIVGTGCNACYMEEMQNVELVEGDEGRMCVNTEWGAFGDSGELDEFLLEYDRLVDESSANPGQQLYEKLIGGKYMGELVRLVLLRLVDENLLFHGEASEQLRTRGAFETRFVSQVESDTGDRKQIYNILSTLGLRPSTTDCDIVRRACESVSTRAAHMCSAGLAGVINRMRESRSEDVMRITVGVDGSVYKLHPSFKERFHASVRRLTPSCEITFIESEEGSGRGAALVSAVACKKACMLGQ
Procedure: (§1) Then 85 μL assay mix containing 100 mM Tris HCl pH 8.0, 5 mM MgCl2, 200 mM Glucose, 0.8 mM ATP, 1 mM NAD^+, 0.25 Units of G6P-DH, was added.

HK2 = target: T2, HK2 (Homo sapiens, UniProt P52789); assay: as above; type: biochemical; conditions: recombinant HK2; n.i means no enzyme inhibition; read-out: Enzyme IC50
T2 construct: made in house; host or cells: E. coli BL21 (DE3)
T2 sequence (P52789 1-917): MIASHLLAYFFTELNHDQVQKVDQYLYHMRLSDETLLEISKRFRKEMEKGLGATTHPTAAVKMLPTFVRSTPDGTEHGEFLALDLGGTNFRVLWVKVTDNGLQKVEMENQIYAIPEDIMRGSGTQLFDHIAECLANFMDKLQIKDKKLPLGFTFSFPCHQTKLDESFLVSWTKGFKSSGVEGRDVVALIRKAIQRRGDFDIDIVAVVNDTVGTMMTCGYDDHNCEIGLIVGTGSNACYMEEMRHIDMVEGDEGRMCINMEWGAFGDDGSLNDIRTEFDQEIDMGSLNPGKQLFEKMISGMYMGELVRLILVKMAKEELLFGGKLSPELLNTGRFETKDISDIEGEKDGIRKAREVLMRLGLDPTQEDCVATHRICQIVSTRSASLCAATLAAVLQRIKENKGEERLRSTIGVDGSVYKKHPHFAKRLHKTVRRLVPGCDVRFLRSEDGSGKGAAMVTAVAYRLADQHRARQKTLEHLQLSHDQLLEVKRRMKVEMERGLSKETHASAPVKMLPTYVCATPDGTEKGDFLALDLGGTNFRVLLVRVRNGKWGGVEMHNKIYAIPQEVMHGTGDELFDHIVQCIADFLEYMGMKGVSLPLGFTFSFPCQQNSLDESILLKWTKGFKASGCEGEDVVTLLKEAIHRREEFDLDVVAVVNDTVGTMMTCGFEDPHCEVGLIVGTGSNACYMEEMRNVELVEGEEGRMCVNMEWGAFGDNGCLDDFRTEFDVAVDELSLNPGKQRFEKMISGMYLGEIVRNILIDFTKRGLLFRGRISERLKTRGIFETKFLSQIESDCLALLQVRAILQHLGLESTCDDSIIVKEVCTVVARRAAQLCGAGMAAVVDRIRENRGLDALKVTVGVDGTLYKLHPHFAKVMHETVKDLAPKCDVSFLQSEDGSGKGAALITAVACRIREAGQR
Procedure: as §1

HK1 = target: T3, HK1 (Homo sapiens, UniProt P19367); assay: as above; type: biochemical; conditions: recombinant HK1
T3 construct: purchased Shanghai yuanye Bio-Technology Co., Ltd (China)
T3 sequence (P19367 1-917): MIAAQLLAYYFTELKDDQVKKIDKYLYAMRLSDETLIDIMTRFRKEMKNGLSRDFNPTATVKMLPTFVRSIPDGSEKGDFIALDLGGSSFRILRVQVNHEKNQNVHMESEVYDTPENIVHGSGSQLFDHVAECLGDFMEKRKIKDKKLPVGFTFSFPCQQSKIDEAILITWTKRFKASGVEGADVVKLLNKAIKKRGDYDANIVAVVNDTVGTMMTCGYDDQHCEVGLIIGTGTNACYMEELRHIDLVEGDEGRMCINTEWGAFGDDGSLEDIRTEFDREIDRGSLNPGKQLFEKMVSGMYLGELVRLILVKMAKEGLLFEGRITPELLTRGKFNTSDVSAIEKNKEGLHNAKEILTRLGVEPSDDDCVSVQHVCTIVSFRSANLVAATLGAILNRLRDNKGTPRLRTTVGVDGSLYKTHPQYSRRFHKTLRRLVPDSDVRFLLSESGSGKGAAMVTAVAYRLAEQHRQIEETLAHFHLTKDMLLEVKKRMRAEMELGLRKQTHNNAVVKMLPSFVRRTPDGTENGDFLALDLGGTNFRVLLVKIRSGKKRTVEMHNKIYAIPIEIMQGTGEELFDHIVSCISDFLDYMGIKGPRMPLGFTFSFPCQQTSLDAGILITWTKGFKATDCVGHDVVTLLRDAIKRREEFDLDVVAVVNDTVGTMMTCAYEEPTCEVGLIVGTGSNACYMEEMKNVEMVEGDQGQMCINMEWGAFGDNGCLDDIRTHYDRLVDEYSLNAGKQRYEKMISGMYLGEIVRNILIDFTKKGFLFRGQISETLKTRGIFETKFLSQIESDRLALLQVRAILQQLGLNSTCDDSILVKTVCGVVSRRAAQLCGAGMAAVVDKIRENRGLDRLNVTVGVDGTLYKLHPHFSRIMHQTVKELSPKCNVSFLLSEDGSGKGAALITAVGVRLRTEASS
Procedure: as §1

HCT116 cells = assay: Cell proliferation assay (CCK-8); type: cell-based, human; conditions: 100, 200, 400 μM, 24-96 h
Procedure: (§2) HCT116 and SW480 cells were seeded at a density of 2 × 10^3 per well into 96-well plates. Cell proliferation was assessed by incubating them with Cell Counting Kit-8 reagents (Dojindo, Shanghai, China) for 24 h,48 h, 72 h, 96 h at 37 °C and measuring the absorbance at 450 nm. The experiment was performed in triplicate.

SW480 cells [2] = assay: Cell proliferation assay (CCK-8); type: cell-based, human; conditions: 100, 200, 400 μM, 24-96 h
Procedure: as §2

Q: For `NC(CO)C(=O)NNCc1ccc(O)c(O)c1O` (stereo not drawn) [Benz, Benserazide], which “concentration of lactate in cell culture supernatant” value (SW480 cells [1]) is on record?
A: remarkably decreased

Q: And the IC50 (HK4)?
A: 40.5 ± 2.94 µM

Q: And the IC50 (HK2)?
A: 5.52 ± 0.17 µM

Q: And the IC50 (HK1)?
A: 25.13 ± 0.24 µM

Q: And the cell proliferation (HCT116 cells)?
A: markedly inhibited proliferation

Q: What about the cell proliferation (SW480 cells [2]) of the same compound?
A: markedly inhibited proliferation
